Molecules are shown by their SMILES.

Drawing on article PMC10966741, “Consensus Pharmacophore Strategy For Identifying Novel SARS-Cov-2 M^pro Inhibitors from Large Chemical Libraries” (Journal of Chemical Information and Modeling, 2024), this text covers IC50 for 3 compounds.

The target in the assay is SARS-CoV-2 M^pro (main protease; 3CLpro) (Severe acute respiratory syndrome coronavirus 2, UniProt P0DTC1). The experiment in a line: continuous FRET cleavage assay. The assay is classed as biochemical.

As for `O=C(Nc1ccccc1-c1nc2ccccc2[nH]1)c1cc(C2CC2)[nH]n1` [compound 5, N-[2-(1H-1,3-benzodiazol-2-yl)phenyl]-5-cyclopropyl-1H-pyrazole-3-carboxamide], the IC50 (in general, the concentration needed to halve the response being measured) amounted to 70.5 µM.

Compound `Cc1ccc(NC(=O)C2CC(=O)Nc3cc(F)ccc32)c(OCC(F)(F)F)c1` (stereo not drawn) [compound 1, 7-fluoro-N-[4-methyl-2-(2,2,2-trifluoroethoxy)phenyl]-2-oxo-1,2,3,4-tetrahydroquinoline-4-carboxamide] showed an IC50 of 86.6 µM.

Regarding `CCOc1cc(C)ccc1NC(=O)C1CC(=O)Nc2ccccc21` (stereo not drawn) [compound 4, N-(2-ethoxy-4-methylphenyl)-2-oxo-1,2,3,4-tetrahydroquinoline-4-carboxamide], the midpoint of inhibition, the IC50, lay at 32.6 µM.
